Data taken from patent publication US20070197509A1, “Compositions and methods for modulating gated ion channels” (PainCeptor Pharma Corporation, priority 2005, published 2007).

Tests used:
[1] = system: hASIC3 (h3) and/or hASIC1a (h1a); assay: FlexStation/FLIPR assay, channel not marked in the cell; type: cell-based, human; settings: FlexStation, Table C
From the text: (§1) The MES-induced peak calcium response (or change in membrane potential), in the presence of test substance, is expressed relative to the MES response alone. Test substances that block the MES-induced calcium response (or change in membrane potential) are re-tested in triplicates. Confirmed hits are picked for further characterization by performing full dose-response curves to determine potency of each hit compound as represented by the IC50 values (i.e., the concentration of the test substance which inhibits 50% of the MES-induced calcium and/or membrane potentiation response; see, for example, FIG. 1).
(§2) The data shown in Table H was acquired using the FlexStation assay described in Example 1 on HEK293 cells expressing hASIC3 (h3) and/or hASIC1a (h1a).

hASIC1a [2] = target: T1, hASIC1a (Homo sapiens, UniProt P78348); assay: FlexStation/FLIPR calcium-imaging assay, acid (MES)-induced response in ASIC1a expressing cells; type: cell-based; parameters: expressed in transfected cells
T1 sequence (P78348 1-528): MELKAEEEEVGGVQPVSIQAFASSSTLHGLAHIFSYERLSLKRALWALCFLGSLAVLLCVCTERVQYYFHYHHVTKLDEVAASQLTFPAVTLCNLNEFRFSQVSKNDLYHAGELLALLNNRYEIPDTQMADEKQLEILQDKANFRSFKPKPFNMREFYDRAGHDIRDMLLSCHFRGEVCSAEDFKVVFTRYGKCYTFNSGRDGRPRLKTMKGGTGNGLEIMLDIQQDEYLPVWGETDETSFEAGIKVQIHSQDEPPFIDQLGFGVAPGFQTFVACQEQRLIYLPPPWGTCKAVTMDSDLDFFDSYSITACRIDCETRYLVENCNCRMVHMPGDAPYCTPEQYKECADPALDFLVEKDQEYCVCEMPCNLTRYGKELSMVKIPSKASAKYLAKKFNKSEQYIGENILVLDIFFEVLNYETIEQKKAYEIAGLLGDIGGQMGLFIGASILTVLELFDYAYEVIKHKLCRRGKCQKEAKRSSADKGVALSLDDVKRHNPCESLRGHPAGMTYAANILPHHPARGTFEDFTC
Experimental: Identification of ASIC Antagonists Using Calcium-Imaging
ASIC1a expressing HEK293 or CHO cells are grown in culture medium (DMEM with 10% FBS), in polystyrene culture flasks ([…]) at 37° C. in a humidified atmosphere of 5% CO2. Confluency of cells should be 80-90% on day of plating. Cells are rinsed with 10 ml of PBS and re-suspended by addition of culture medium and trituration with a 25 ml pipette.
The cells are seeded at a density of approximately 1×10^5 cells/ml for HEK293 and 8×10^4 for CHO cells (100 μl/well) in black-walled, clear bottom, poly-D-lysin pre-treated 96-well plates. Plated cells were allowed to proliferate for 48 h before loading with dye.
Fluo-4/AM (1 mg, Molecular Probes) is dissolved in 912 μl DMSO. The Fluo-4/AM stock solution (1 mM) is diluted with culture medium to a final concentration of 2 μM (loading solution).
The culture medium is aspirated from the wells, and 80 μl of the Fluo-4/AM loading solution is added to each well. The cells are incubated at 37° C. for 30 min. When CHO cells are used, probenicid at 2.5 mM (final concentration) is added in the loading solution.
After the loading period (15-20 min., the loading solution is aspirated and the cells are washed twice with 100 μl modified Assay Buffer (145 mM NaCl, 5 mM KCl, 5 mM CaCl2, 1 mM MgCl2, 10 mM HEPES, pH 7.4) to remove extracellular dye. Following the second wash, 100 μl modified Assay Buffer is added to each well and the fluorescence is measured in FLIPR™ or FlexStation™ (Molecular Devices, USA), or any other suitable equipment known to the skilled in the art. When CHO cells are used, probenicid at 2.5 mM (final concentration) is added in the wash buffer.
First addition: 50 μl test solution at a rate of 26 μl/sec and a starting height of 125 μl
Second addition: 50 μl MES solution (20 mM, 5 mM final concentration) at a rate of 26 μl/sec and a starting height of 115 μl.
Reading intervals: pre-incubation—120 sec. antagonist phase, addition of MES at 145 sec. and reading time with agonist 100 sec (total run time of 240 sec).
Fluorescence obtained after stimulation is corrected for the mean basal fluorescence (in modified Assay Buffer).
as §1

hASIC3 = target: T2, hASIC3 (Homo sapiens, UniProt Q9UHC3); assay: FlexStation assay on HEK293 cells expressing hASIC3; type: cell-based; parameters: expressed in transfected cells; host or cells: HEK293 cells; settings: for IC50: FlexStation (Flex), Tables A-F, read-out: Biological Data (IC50 uM) h3 (Flex)
T2 sequence (Q9UHC3 1-531): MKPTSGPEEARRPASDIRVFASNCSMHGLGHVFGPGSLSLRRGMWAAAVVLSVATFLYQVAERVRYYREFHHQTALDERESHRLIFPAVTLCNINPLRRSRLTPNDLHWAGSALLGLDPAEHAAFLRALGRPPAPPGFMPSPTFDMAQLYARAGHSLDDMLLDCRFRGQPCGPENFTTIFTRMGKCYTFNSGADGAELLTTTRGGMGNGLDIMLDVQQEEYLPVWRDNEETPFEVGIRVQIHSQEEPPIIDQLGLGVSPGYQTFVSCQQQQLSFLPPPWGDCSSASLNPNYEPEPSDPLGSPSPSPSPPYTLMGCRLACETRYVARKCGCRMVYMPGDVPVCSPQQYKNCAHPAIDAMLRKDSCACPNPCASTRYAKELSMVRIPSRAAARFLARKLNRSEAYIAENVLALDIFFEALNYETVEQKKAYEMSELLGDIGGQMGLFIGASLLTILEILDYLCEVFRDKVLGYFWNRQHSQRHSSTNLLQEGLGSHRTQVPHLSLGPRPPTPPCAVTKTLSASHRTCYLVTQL
Experimental: A vial of FMP dye (Molecular Devices) is resuspended in 10.5 ml of assay buffer (48.3 mM NaCl, 93 mM NMDG, 5 mM KCl, 5 mM CaCl2, 1 mM MgCl2, 10 mM HEPES, pH 7.4). The culture medium is aspirated from the wells, and 100 μl of the FMP loading solution is added to each well. The cells are incubated at 37° C. for 30 min.
After the loading period, the loading solution is left on the cells and the membrane potential-induced fluorescence is measured in FLIPR™ or FlexStation™ (Molecular Devices, USA), or any other suitable equipment known to the skilled in the art.
For cells co-expressing ASIC1a and ASIC3 channels (e.g. HEK293 cells), membrane potential dye (FMP dye) is used and the FlexStation settings are as above.
as §1, §2

hASIC1a [3] = target: T1, hASIC1a; assay: Two-electrode voltage clamp in Xenopus laevis oocytes expressing hASIC1a (OpusExpress); type: cell-based; parameters: expressed in transfected cells; host or cells: Xenopus laevis oocytes, nuclear microinjection of cDNA (e.g. in pCDNA3)
Procedure, shortened: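 Two-electrode voltage clamp on Xenopus oocytes expressing homomeric hASIC1a, recorded on an automated multichannel system. Oocytes superfused with Ringer (HEPES, pH 7.4); currents evoked by MES-buffered acidic Ringer, with compound present in both control and acidic solutions, at room temperature.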

[4] = FlexStation (Flex), Tables A-F, read-out: Biological Data (IC50 uM) h1a (Flex)

Structure (SMILES) | Biological Data (Flex), channel not given [1] | IC50 (hASIC1a [2]; [4]) | IC50 (hASIC3) | also measured
COc1ccc(-c2cc(C(=O)O)c3cc(Cl)ccc3n2)cc1 [Compound 38, 6-chloro-2-(4-methoxy-phenyl)-quinoline-4-carboxylic acid] | Not Active (Flex) |  |  | 
COc1ccc(-c2cc(C(=O)O)c3ccccc3n2)cc1OC [Compound 39, 2-(3,4-Dimethoxy-phenyl)-quinoline-4-carboxylic acid] | Not Active (Flex) |  |  | 
O=C(O)c1cccc(Nc2nc(-c3ccc(Cl)cc3Cl)nc3ccccc23)c1 [Compound 101, 3-[2-(2,4-dichloro-phenyl)-quinazolin-4-ylamino]-benzoic acid] |  | 20 to 30 µM | > 50 µM | 
Brc1ccc(-c2nc(N3CCNCC3)c3ccccc3n2)cc1 [Compound C, 2-(4-bromo-phenyl)-4-piperazin-1-yl-quinazoline] |  |  |  | IC50 (hASIC1a [2]; calcium mobilization assay, HEK293, n=3-7, read-out: FPAT-ASIC1a human/HEK293/k21 IC50): > 20 µM
Clc1ccc2c(N3CCNCC3)ccnc2c1 [Compound H, 7-chloro-4-piperazin-1-yl-quinoline] |  | 2 to 10 µM | 5 to 15 µM | IC50 (hASIC1a [3]; OpusExpress (OX), Tables A-F, h1a printed in some cells only, read-out: Biological Data (IC50 uM) h1a (OX)): 30 to 50 µM; IC50 (hASIC1a [3]; Table H, read-out: IC50 (μM) Opus Express (h1a)): 43.7 µM; EC50 (hASIC3): < 10 µM
